Experimental data published in ChEMBL document CHEMBL1201862, “PubChem BioAssay data set” (2004).
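Interpolation was linear, between the two tested concentrations surrounding the appropriate level; five concentrations were tested over 48 hours in 96-well plates. GI50 marks 50% less growth.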 The source made the active and inactive calls. Cut-off read from the data, not from the text of the source: active = GI50 up to about 1.1 µM and inactive = higher.

Columns and labels:
Assay in all cases: growth of human tumour cells (NCI), 48 h
SW-620 = tested on: SW-620
UO-31 = tested on: UO-31
MDA-MB-231 = tested on: MDA-MB-231
HCT-15 = tested on: HCT-15
NCI-H460 = tested on: NCI-H460
TK-10 = tested on: TK-10
SN12C = tested on: SN12C
LOX IMVI = tested on: LOX IMVI
HOP-62 = tested on: HOP-62
OVCAR-4 = tested on: OVCAR-4
SNB-75 = tested on: SNB-75
UACC-257 = tested on: UACC-257
U-251 = tested on: U-251
MDA-N = tested on: MDA-N
HT-29 = tested on: HT-29
786-0 = tested on: 786-0
EKVX = tested on: EKVX
NCI-H522 = tested on: NCI-H522
ACHN = tested on: ACHN
MDA-MB-435 = tested on: MDA-MB-435

Row | Structure (SMILES) | GI50 (SW-620) | GI50 (UO-31) | GI50 (MDA-MB-231) | GI50 (HCT-15) [µM] | GI50 (NCI-H460) | GI50 (TK-10) | GI50 (SN12C) | GI50 (LOX IMVI) | GI50 (HOP-62) | GI50 (OVCAR-4) | GI50 (SNB-75) | GI50 (UACC-257) | GI50 (U-251) | GI50 (MDA-N) | GI50 (HT-29) | GI50 (786-0) | GI50 (EKVX) | GI50 (NCI-H522) | GI50 (ACHN) | GI50 (MDA-MB-435)
1 | Cc1c(CNc2ccc(Cl)c(Cl)c2Cl)cnc2nc(N)nc(N)c12 | 0.179 µM (active) | 2.44 µM (inactive) | 0.891 µM (active) | 0.184 | 0.0615 µM (active) | 14.1 µM (inactive) | 1.36 µM (inactive) | 0.064 µM (active) | 1.04 µM (active) | 14.5 µM (inactive) | 10.4 µM (inactive) | 0.236 µM (active) | 0.172 µM (active) | 0.0515 µM (active) | 0.162 µM (active) | 0.0918 µM (active) | 4.2 µM (inactive) | 4.46 µM (inactive) | 0.3 µM (active) | 0.107 µM (active)
2 | O=c1[nH]c(=O)n(C2CC(O)C(CO)O2)cc1OCCc1ccccc1 (stereo unspecified) | – | > 100 µM (inactive) | > 100 µM (inactive) | > 100 | > 10 µM (inactive) | > 100 µM (inactive) | > 100 µM (inactive) | > 100 µM (inactive) | > 100 µM (inactive) | > 100 µM (inactive) | > 100 µM (inactive) | > 100 µM (inactive) | > 100 µM (inactive) | > 100 µM (inactive) | > 100 µM (inactive) | > 100 µM (inactive) | > 100 µM (inactive) | > 100 µM (inactive) | > 100 µM (inactive) | > 100 µM (inactive)
3 | OCC(CCc1c[nH]c2ccccc12)c1c[nH]c2ccccc12 (stereo unspecified) | 15.7 µM (inactive) | 12.6 µM (inactive) | 14.1 µM (inactive) | 14.7 | 14.6 µM (inactive) | 19.6 µM (inactive) | 17.5 µM (inactive) | 14.3 µM (inactive) | 20.5 µM (inactive) | 17.9 µM (inactive) | 19.7 µM (inactive) | 11.6 µM (inactive) | 16.7 µM (inactive) | 16.7 µM (inactive) | 17 µM (inactive) | 16 µM (inactive) | 14.7 µM (inactive) | 16 µM (inactive) | 17.9 µM (inactive) | 18.4 µM (inactive)
4 | CCOC(=O)/C=C(\C(=O)OCC)n1cc(C)c(=O)n(Cc2cnnn2COCCOC(C)=O)c1=O | 2.18 µM (inactive) | 14.4 µM (inactive) | 19.8 µM (inactive) | 3.44 | 11.9 µM (inactive) | 4.91 µM (inactive) | 16 µM (inactive) | 5.97 µM (inactive) | 22.2 µM (inactive) | 15.6 µM (inactive) | 18.4 µM (inactive) | 13.4 µM (inactive) | 17.7 µM (inactive) | 19.9 µM (inactive) | 8.59 µM (inactive) | 3.93 µM (inactive) | 11.9 µM (inactive) | 1.21 µM (inactive) | 2.67 µM (inactive) | 8.97 µM (inactive)
5 | CCN=C=NCCCN(C)C | > 100 µM (inactive) | > 100 µM (inactive) | > 100 µM (inactive) | > 100 | > 100 µM (inactive) | > 100 µM (inactive) | > 100 µM (inactive) | > 100 µM (inactive) | > 100 µM (inactive) | > 100 µM (inactive) | > 100 µM (inactive) | > 100 µM (inactive) | > 100 µM (inactive) | > 100 µM (inactive) | > 100 µM (inactive) | > 100 µM (inactive) | > 100 µM (inactive) | > 100 µM (inactive) | > 100 µM (inactive) | > 100 µM (inactive)
6 | O=C(Nc1ccccc1)c1cc2c(cc1Cl)Sc1nccn1S2(=O)=O | 21.1 µM (inactive) | 34 µM (inactive) | 27 µM (inactive) | 19.1 | 16.6 µM (inactive) | 34.5 µM (inactive) | 46.1 µM (inactive) | 9.2 µM (inactive) | 16 µM (inactive) | 31.8 µM (inactive) | 17.7 µM (inactive) | 18.7 µM (inactive) | 25.5 µM (inactive) | 23.5 µM (inactive) | 21.9 µM (inactive) | 21.2 µM (inactive) | 24.2 µM (inactive) | 21 µM (inactive) | 41.3 µM (inactive) | 14.8 µM (inactive)
7 | Fc1ccc(/C=C2\COCC3=C2NC(=S)NC3c2ccc(F)cc2)cc1 (stereo unspecified) | 19.7 µM (inactive) | 17.7 µM (inactive) | 18.5 µM (inactive) | 15.7 | 19.8 µM (inactive) | 22.1 µM (inactive) | 18.5 µM (inactive) | 19.9 µM (inactive) | 17.6 µM (inactive) | 18.1 µM (inactive) | 22.2 µM (inactive) | 18.7 µM (inactive) | 20.5 µM (inactive) | 17.6 µM (inactive) | – | 18.3 µM (inactive) | 20 µM (inactive) | 16.4 µM (inactive) | 37 µM (inactive) | 18.8 µM (inactive)
8 | ClC(Cl)=C1C(=C(Cl)Cl)C(Cl)(Cl)C1(Cl)Cl | 1.18 µM (inactive) | 3.05 µM (inactive) | 2.4 µM (inactive) | 1.14 | 3.93 µM (inactive) | 3.52 µM (inactive) | – | 0.212 µM (active) | 8.18 µM (inactive) | 5.07 µM (inactive) | 3.18 µM (inactive) | 3.51 µM (inactive) | 5.41 µM (inactive) | 1.37 µM (inactive) | 2.02 µM (inactive) | 1.07 µM (active) | 7.52 µM (inactive) | 0.0612 µM (active) | 2.48 µM (inactive) | 2.71 µM (inactive)
9 | O=c1[nH]c(=O)c2c3n(cc2[nH]1)CCCCC3 | – | > 100 µM (inactive) | 64.4 µM (inactive) | > 100 | > 100 µM (inactive) | 17.5 µM (inactive) | > 100 µM (inactive) | > 100 µM (inactive) | > 100 µM (inactive) | > 100 µM (inactive) | > 100 µM (inactive) | > 100 µM (inactive) | > 100 µM (inactive) | > 100 µM (inactive) | > 100 µM (inactive) | > 100 µM (inactive) | > 100 µM (inactive) | > 100 µM (inactive) | > 100 µM (inactive) | > 100 µM (inactive)
10 | N#Cc1cnn2c1n[n+]([O-])c1ccc(Cl)cc12 | 9.14 µM (inactive) | 13.5 µM (inactive) | 15.1 µM (inactive) | 1.97 | 11.4 µM (inactive) | 57.8 µM (inactive) | 7.91 µM (inactive) | 3.98 µM (inactive) | 15.2 µM (inactive) | 2.23 µM (inactive) | 6.9 µM (inactive) | 9.35 µM (inactive) | 17 µM (inactive) | 8.65 µM (inactive) | 7.98 µM (inactive) | 27.4 µM (inactive) | 2.9 µM (inactive) | 1.75 µM (inactive) | 5.79 µM (inactive) | 11.9 µM (inactive)
11 | Cc1ccc2nc(NC(=O)C(=O)C3C(=O)NC(=S)NC3=O)sc2c1 | > 100 µM (inactive) | 77.3 µM (inactive) | > 100 µM (inactive) | > 100 | > 100 µM (inactive) | > 100 µM (inactive) | > 100 µM (inactive) | > 100 µM (inactive) | > 100 µM (inactive) | > 100 µM (inactive) | > 100 µM (inactive) | > 100 µM (inactive) | > 100 µM (inactive) | > 100 µM (inactive) | > 100 µM (inactive) | > 100 µM (inactive) | > 100 µM (inactive) | 78 µM (inactive) | > 100 µM (inactive) | > 100 µM (inactive)
12 | COc1ccc(/C=C(\Cl)c2ccc(OC)c(OC)c2)cc1OC | > 100 µM (inactive) | > 100 µM (inactive) | > 100 µM (inactive) | > 100 | > 100 µM (inactive) | > 100 µM (inactive) | > 100 µM (inactive) | > 100 µM (inactive) | > 82.8 µM (inactive) | > 67.6 µM (inactive) | > 100 µM (inactive) | > 100 µM (inactive) | > 100 µM (inactive) | > 100 µM (inactive) | > 100 µM (inactive) | > 100 µM (inactive) | > 100 µM (inactive) | 22.9 µM (inactive) | > 100 µM (inactive) | > 100 µM (inactive)
13 | O=C(CCCc1cccc2[nH]c3c(c12)CN(Cc1ccccc1)CC3)c1ccc(F)cc1 | 83.2 µM (inactive) | > 33.3 µM (inactive) | > 40.7 µM (inactive) | 40.3 | 31.5 µM (inactive) | > 100 µM (inactive) | > 100 µM (inactive) | 7.85 µM (inactive) | > 37.4 µM (inactive) | > 67 µM (inactive) | > 62.7 µM (inactive) | 2.61 µM (inactive) | 49.4 µM (inactive) | 97.5 µM (inactive) | 4.39 µM (inactive) | > 52.5 µM (inactive) | > 100 µM (inactive) | 32.4 µM (inactive) | > 100 µM (inactive) | 40.6 µM (inactive)
14 | CCOC(=O)C(NC(=O)c1ccccc1)(Nc1ccc(S(=O)(=O)Nc2ccc(OC)nn2)cc1)C(F)(F)F (stereo unspecified) | > 100 µM (inactive) | > 100 µM (inactive) | > 100 µM (inactive) | > 100 | > 100 µM (inactive) | > 100 µM (inactive) | > 100 µM (inactive) | > 100 µM (inactive) | > 100 µM (inactive) | > 100 µM (inactive) | > 100 µM (inactive) | > 100 µM (inactive) | > 100 µM (inactive) | > 100 µM (inactive) | > 100 µM (inactive) | > 100 µM (inactive) | > 100 µM (inactive) | > 100 µM (inactive) | > 100 µM (inactive) | > 100 µM (inactive)
